Like-named read-outs stand apart in the source and are kept apart here.
Key:
Type in all cases: biochemical
[1] = target: T1, Bovine LOX (Bos taurus, UniProt P33072); test: LOX inhibition, Amplex Red oxidation assay
T1 sequence (P33072 170-418): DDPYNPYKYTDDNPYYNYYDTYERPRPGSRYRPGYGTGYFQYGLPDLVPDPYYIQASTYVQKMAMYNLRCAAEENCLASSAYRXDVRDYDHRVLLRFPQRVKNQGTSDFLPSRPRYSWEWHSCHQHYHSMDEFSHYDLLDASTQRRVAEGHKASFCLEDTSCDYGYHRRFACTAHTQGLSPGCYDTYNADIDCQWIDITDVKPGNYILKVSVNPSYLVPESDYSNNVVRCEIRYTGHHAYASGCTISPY
Method: (§1) LOX and LOXL protein family members can be acquired as recombinant active proteins from commercial sources, or extracted from animal tissues like bovine aorta, tendons, pig skin; or prepared from cell cultures. […] The assay was developed using either 384 or 96 well format. Briefly, in a standard black, clear bottom 384 well plate assay 25 μL of a dilution of any of the isoenzymes and orthologues in 1.2 M urea, 50 mM sodium borate buffer (pH 8.2) were added into each well in the presence of 1 μM mofegiline and 0.5 mM pargyline (to inhibit SSAO and MAO-B and MAO-A, respectively; not necessary if the enzyme is from a recombinant or purified form). Test compounds were dissolved in DMSO and tested in a Concentration Response Curve (CRC) with 11 data points, typically in the micromolar or nanomolar range after incubation with the enzyme for 30 min at 37° C. 25 μL of a reaction mixture containing twice the KM concentration of putrescine (Sigma Aldrich, e.g. 20 mM for LOX and LOXL1 or 10 mM for LOXL2 and 4 mM for LOXL3 and LOXL4), 120 μM Amplex Red (Sigma Aldrich) and 1.5 U/mL horseradish peroxidase (Sigma Aldrich) prepared in 1.2 M urea, 50 mM sodium borate buffer (pH 8.2) were then added to the corresponding wells. The above volumes were doubled in the case of 96 wells plate. The fluorescence (RFU) was read every 2.5 min for 30 min at […] 37° C., excitation 565 nm and emission 590 (Optima; BMG labtech). The slope of the kinetics for each well was calculated using MARS data analysis software (BMG labtech) and this value was used to deduce the IC50 value (Dotmatics). The ability of the inventive compounds to inhibit the amine oxidase activity of LOX and other family members is shown in Table 4.

[2] = target: T2, Human recombinant LOXL1 (Homo sapiens, UniProt Q08397); test: LOXL1 inhibition, Amplex Red oxidation assay
T2 sequence (Q08397 96-574): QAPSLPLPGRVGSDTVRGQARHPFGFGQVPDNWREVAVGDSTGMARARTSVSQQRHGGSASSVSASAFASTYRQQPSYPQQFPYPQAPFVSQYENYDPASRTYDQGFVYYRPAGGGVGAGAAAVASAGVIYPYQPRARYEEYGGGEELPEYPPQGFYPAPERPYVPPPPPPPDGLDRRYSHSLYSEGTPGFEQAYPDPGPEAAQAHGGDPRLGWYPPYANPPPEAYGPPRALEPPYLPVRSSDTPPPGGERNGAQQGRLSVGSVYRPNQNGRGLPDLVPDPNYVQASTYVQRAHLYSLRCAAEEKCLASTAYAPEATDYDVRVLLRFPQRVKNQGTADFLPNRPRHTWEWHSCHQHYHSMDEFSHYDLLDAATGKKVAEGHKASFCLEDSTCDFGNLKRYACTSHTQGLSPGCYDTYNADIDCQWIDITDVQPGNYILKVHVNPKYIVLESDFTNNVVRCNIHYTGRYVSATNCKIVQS
Method: as §1

[3] = target: T3, Human recombinant LOXL4 (Homo sapiens, UniProt Q96JB6); test: LOXL4 inhibition, Amplex Red oxidation assay
T3 sequence (Q96JB6 25-756): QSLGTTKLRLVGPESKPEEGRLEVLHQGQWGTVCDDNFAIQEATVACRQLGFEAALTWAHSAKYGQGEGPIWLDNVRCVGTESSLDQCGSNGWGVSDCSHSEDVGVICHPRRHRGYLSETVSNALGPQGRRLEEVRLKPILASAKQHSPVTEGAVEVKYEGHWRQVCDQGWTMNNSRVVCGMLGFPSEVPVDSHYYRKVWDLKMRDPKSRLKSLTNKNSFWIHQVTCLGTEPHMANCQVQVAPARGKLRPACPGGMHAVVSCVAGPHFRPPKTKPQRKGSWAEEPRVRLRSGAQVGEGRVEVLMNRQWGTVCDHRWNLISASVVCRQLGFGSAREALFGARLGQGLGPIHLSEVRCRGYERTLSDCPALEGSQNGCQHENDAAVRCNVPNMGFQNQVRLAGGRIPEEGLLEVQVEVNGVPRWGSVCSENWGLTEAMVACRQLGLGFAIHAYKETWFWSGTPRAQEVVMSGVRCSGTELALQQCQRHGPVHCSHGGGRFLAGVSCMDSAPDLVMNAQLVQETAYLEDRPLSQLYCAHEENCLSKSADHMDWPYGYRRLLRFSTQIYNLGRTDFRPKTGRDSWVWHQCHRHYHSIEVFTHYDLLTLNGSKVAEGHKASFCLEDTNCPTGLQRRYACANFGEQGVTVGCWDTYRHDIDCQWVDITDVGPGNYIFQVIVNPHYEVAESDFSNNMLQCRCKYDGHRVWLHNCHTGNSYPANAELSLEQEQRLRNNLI
Method: as §1

[4] = target: T4, Human recombinant LOXL3 (Homo sapiens, UniProt P58215); test: LOXL3 inhibition, Amplex Red oxidation assay
T4 sequence (P58215 26-753): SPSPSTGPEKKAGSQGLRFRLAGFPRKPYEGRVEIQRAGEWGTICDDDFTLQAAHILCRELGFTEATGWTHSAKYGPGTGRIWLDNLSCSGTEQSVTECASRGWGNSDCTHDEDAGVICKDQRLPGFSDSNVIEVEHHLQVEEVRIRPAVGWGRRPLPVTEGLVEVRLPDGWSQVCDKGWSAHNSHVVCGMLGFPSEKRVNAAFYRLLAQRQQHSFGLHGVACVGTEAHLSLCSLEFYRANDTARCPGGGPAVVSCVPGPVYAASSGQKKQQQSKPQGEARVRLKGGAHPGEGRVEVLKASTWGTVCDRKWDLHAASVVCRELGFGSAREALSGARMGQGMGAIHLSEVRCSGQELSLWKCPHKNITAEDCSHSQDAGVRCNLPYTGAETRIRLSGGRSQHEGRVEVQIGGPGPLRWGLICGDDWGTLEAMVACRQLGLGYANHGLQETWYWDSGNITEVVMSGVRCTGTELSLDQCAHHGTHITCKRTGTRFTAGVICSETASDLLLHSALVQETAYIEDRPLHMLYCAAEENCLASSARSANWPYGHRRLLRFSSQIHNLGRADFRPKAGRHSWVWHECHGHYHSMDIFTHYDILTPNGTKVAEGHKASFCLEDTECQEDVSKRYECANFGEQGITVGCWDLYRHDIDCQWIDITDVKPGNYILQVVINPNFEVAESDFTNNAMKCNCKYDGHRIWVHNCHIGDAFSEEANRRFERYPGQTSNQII
Method: as §1

[5] = incubation with enzyme 30 min at 37° C, read-out: Bovine LOX Activity IC50
[6] = incubation with enzyme 30 min at 37° C, read-out: Human recombinant LOXL1 Activity IC50
[7] = incubation with enzyme 30 min at 37° C, read-out: Human recombinant LOXL4 Activity IC50
[8] = incubation with enzyme 30 min at 37° C, read-out: Human recombinant LOXL3 Activity IC50

SMILES	IC50 [1, 5] [nM]	IC50 [2, 6] [nM]	IC50 [3, 7] [nM]	IC50 [4, 8] [nM]	IC50 [1] [nM]	IC50 [2] [nM]	IC50 [3] [nM]	IC50 [4] [nM]
N#CCCN [BAPN, β-aminopropionitrile, reference compound]	2200	2500	300	500				
NC/C=C(\F)C(F)(F)S(=O)(=O)c1ccccc1 [Compound 1, (Z)-3,4,4-trifluoro-4-(phenylsulfonyl)but-2-en-1-amine]					3700	3400	300	1500
NC/C=C(\F)C(F)(F)S(=O)(=O)c1cccc2cccnc12 [Compound 2, (Z)-3,4,4-trifluoro-4-(quinolin-8-ylsulfonyl)but-2-en-1-amine]	8000	13400	600	16400				
CNc1ccccc1S(=O)(=O)C(F)(F)/C(F)=C/CN [Compound 4, (Z)-2-((4-amino-1,1,2-trifluorobut-2-en-yl)sulfony1)-N-methylaniline]	4300	4800	700	7400				
Cc1ccccc1S(=O)(=O)C(F)(F)/C(F)=C/CN [Compound 5, (Z)-3,4,4-trifluoro-4-(o-tolylsulfonyl)but-2-en-1-amine]	3800							
Cc1ccc(S(=O)(=O)C(F)(F)/C(F)=C/CN)cc1 [Compound 6, (Z)-3,4,4-trifluoro-4-tosylbut-2-en-1-amine]	3500	5100	300	1800				
NC/C=C(\F)C(F)(F)S(=O)(=O)Cc1ccccc1 [Compound 8, (Z)-4-(benzylsulfony1)-3,4,4-trifluorobut-2-en-1-amine]	2500	3100	100	1000				
NC/C=C(\F)C(F)(F)[S+]([O-])c1ccccc1 (stereo not shown) [Compound 9, (Z)-3,4,4-trifluoro-4-(phenylsulfinyl)but-2-en-1-amine]	6500	8700	1100	5200				
CS(=O)(=O)c1ccc(COc2ccccc2S(=O)(=O)C(F)(F)/C(F)=C/CN)cc1 [Compound 10, (Z)-3,4,4-trifluoro-4-((2-((4-(methylsulfonyl)benzyl)oxy)phenyl)sulfonyl) but-2-en-1-amine]	2700	2000	100	1500				
COc1cccc(S(=O)(=O)C(F)(F)/C(F)=C/CN)c1 [Compound 12, (Z)-3,4,4-trifluoro-4-((3-methoxyphenyl)sulfonyl)but-2-en-1-amine]	5100	7400	300	2700				
NC/C=C(\F)C(F)(F)S(=O)(=O)c1cccs1 [Compound 14, (Z)-3,4,4-trifluoro-4-(thiophen-2-ylsulfonyl)but-2-en-1-amine]	4500	7000	200	1200				
CS(=O)(=O)c1cccc(CS(=O)(=O)C(F)(F)/C(F)=C/CN)c1 [Compound 17, (Z)-3,4,4-trifluoro-4-((3-(methylsulfonyl)benzyl)sulfonyl)but-2-en-1-amine]	3500	4600	200	800				
NC/C=C(\F)C(F)(F)S(=O)(=O)C1CCCC1 [Compound 19, (Z)-4-(cyclopentylsulfony1)-3,4,4-trifluorobut-2-en-1-amine]	2500	4300	500	1300				

From patent publication US20220251036A1, “DIFLUOROHALOALLYLAMINE SULFONE DERIVATIVE INHIBITORS OF LYSYL OXIDASES, METHODS OF PREPARATION, AND USES THEREOF” (PHARMAXIS LTD., priority 2019, published 2022)
